From US20250230226A1, “PLXDC1/PLXDC2 ACTIVATORS AND THEIR USE IN THE TREATMENT OF BLOOD VESSEL DISORDERS” (THE REGENTS OF THE UNIVERSITY OF CALIFORNIA, priority 2019, published 2025) come the findings set out here.

For assay [1], the system named is CT26.CL25 colon cancer tumor endothelial cells. Description: Colon CT26 ex vivo model of tumor angiogenesis. The class given is cell-based, mouse. To be noted: for 48 hrs (morphology observations after 48 hours): Conc. 40 μm; for cytotoxicity at 40 µM: Mus musculus, Endothelial cell, 48 h, read-out: Cell death. As for the experimental part: An ex vivo tumor angiogenesis model was developed to test the efficacy of anti-cancer candidate agents. The following protocol describes the Ex Vivo Tumor Angiogenesis Model.
• 1. The day before the experiment, all necessary tools were sprayed with 70% ethanol and sterilized under UV light overnight, including blade, dissecting and micro-dissecting scissors and […]. 24-well dishes were placed at 4° C. to pre-chill plates and Matrigel was thawed, 24 hours before tumor dissection. • 2. 70% ethanol was sprayed on working bench. Two sterile petri dishes were prepared with 10 ml sterile PBS. The following steps 3 and 4 are necessary for mouse tumor models. For fresh human tumor, steps 3 and 4 are skipped. • 3. The tumor-bearing mice were euthanized. 70% ethanol was sprayed on the mouse and the tumor was removed using sterilized dissecting tools (avoid the fur). The tumor was rinsed in petri dish with sterile PBS to remove ethanol and fur. The tumor was transferred to a new petri dish with PBS for dissection. The dish is placed on ice. • 4. Pre-chilled sterile pipet tips were used to seed regular Matrigel in 24 well plates on ice. Matrigel (30 μl) was dropped in the middle of each well without touching the edge of the well (avoid introducing bubbles if possible). • 5. The tumor was cut in halves using the sterile blade. Healthy tumor tissue that is not necrotic and is within the tumor capsule was identified and isolated. The healthy tumor tissue was cut into small pieces. For instance, a suitable size for the tumor tissue is 0.5 mm (H)×0.5 mm (L)×0.3 mm (D) with a total volume of 0.075 mm^3. • 6. Each tumor piece was gently transferred and embedded in the Matrigel drop in the 24-well plate. The embedded piece was placed in the bottom and middle of each Matrigel drop. The plate was kept on ice all the time. • 7. After seeding the tumor pieces, plates were incubated in a 37° C. cell culture incubator without medium for 10 minutes in order for the Matrigel to solidify. • 8. Endothelial Growth Medium (0.5 ml) was added to each well and incubated at 37° C. with 5% CO2. Treatment was not added until the new endothelial cells was grown out of the tumor or were larger than 3 mm in diameter. This usually takes 4 days for the LL2 Lewis lung cancer model and 7 days for the CT26 colon cancer model. For human tumor models, the growth time is typically 2-3 weeks, depending on the tumor type. Media was changed every 4 days during prolonged culture. Typically, when the tumor tissue grows to 2 mm in diameter, it was good for drug testing. A size of about 3 mm in diameter can make visualization easier. • 9. When the assay was ready to be analyzed for cell death (e.g., 48 hours after drug addition), the dye mixture was prepared by mixing 6 μl of green dye to stain live cells (5 mg/ml Fluorescein diacetate or FDA in DMSO) with 30 μl of red dye (2.5 mg/ml Propidium iodide or PI in PBS) to stain dead cells in an Eppendorf tube. The FDA dye needs to be stored frozen in a −20° C. freezer because it has a labile ester bond. • 10. 1 μl of the dye mixture was added to each well of the 24-well dish. It is usually preferred to do one 24-well dish at a time given the amount of time needed to take pictures (the green dye is not as stable in the cells in the long term). • 11. The dish was gently rocked a few times to mix the dye with the media in the wells and incubate the dish at 37° C. for 10 min (too long incubation can make the green signal too intense). • 12. Each well was washed with 0.5 ml of sterile PBS and then 0.5 ml of phenol red free SFM was added to each well. Alternatively 0.5 ml of regular Endothelial Cell Growth Media can be added to each well if this well needs to be continuously maintained after the experiment. • 13. An inverted microscope using the 2× objective lens was used to observe morphological changes in the experimental wells. • 14. […]

For assay [2], the system named is LL/2 lung cancer tumor endothelial cells. Description: Lung LL2 ex vivo model of tumor angiogenesis. The class given is cell-based, mouse. To be noted: for 48 hrs (morphology observations): LL/2 tumor endothelial cells; for cytotoxicity at 40 µM / cytotoxicity at 20 µM: Mus musculus, Endothelial cell, 48 h, read-out: Cell death; for Cell death: drug treatment for two days, ratio of red area to total endothelial cell area. The gist of the method:
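LL2 mouse tumor fragments (~0.075 mm³) embedded in Matrigel and cultured in endothelial growth medium at 37 °C until endothelial outgrowth (~4 days) before treatment. Cell death assessed e.g. 48 h after drug by fluorescein diacetate (live)/propidium iodide (dead) staining and red/green fluorescence imaging.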

Take `CN1CCCN(c2c(S(=O)(=O)c3ccc([N+](=O)[O-])cc3)cnc3ccc(OC(F)(F)F)cc23)CC1` [Compound 60]: in assay [1], the “48 hrs (morphology observations after 48 hours)” value is 0 and the cytotoxicity at 40 µM was found to be 5%.
For `CCCCOc1ccc2ncc(S(=O)(=O)c3ccc(OC)c(OC)c3)c(N(CC)CC)c2c1` [Compound 123], in assay [1], the “48 hrs (morphology observations after 48 hours)” value was 0 and the cytotoxicity at 40 µM is 20%.
In the same order, the values of `CCCCN(CCCC)c1c(S(=O)(=O)c2ccc(OC)c(OC)c2)cnc2ccc(SC)cc12` [Compound 124] are 0 and 20%.
Turning to `CCOC(=O)c1ccc2ncc(S(=O)(=O)c3ccc(CC)cc3)c(N3CCC(O)(c4ccc(CC)cc4)CC3)c2c1` [Compound 128], in assay [1], the “48 hrs (morphology observations after 48 hours)” value was 0 and the cytotoxicity at 40 µM worked out at 10%.
On to `CCc1ccc(C2(O)CCN(c3c(S(=O)(=O)c4ccc(OC)cc4)cnc4ccc(OC(F)(F)F)cc34)CC2)cc1` [Compound 129], for which, in assay [1], the “48 hrs (morphology observations after 48 hours)” value amounted to 0 and the cytotoxicity at 40 µM was determined as 0%.
In the same order, the values of `CCOC(=O)c1ccc2ncc(S(=O)(=O)c3ccc(CC)cc3)c(N3CCC(N4CCC(O)CC4)CC3)c2c1` [Compound 130] are 0 and 40%.
In the same order, the values of `CCOC(=O)c1ccc2ncc(S(=O)(=O)c3ccc(CC)cc3)c(N3CCCN(CCN(CC)CC)CC3)c2c1` [Compound 131] are “** (more than 50% but less than 100% of endothelial cells vesicularize in cell shape)” and 50%.
In the same order, the values of `CCOC(=O)c1ccc2ncc(S(=O)(=O)c3ccc(CC)cc3)c(N3CCC(OCCN(CC)CC)CC3)c2c1` [Compound 132] are “* (50% or less of cells vesicularize in cell shape)” and 40%.
For `CCOC(=O)c1ccc2ncc(S(=O)(=O)c3ccc(CC)cc3)c(N3CCCC(O)C3)c2c1` (stereo not drawn) [Compound 135], in assay [1], the “48 hrs (morphology observations after 48 hours)” value is given as 0 and the cytotoxicity at 40 µM is 30%.
`CCCCOc1ccc(S(=O)(=O)c2cnc3ccc(SC)cc3c2N2CCC(=O)N(C)CC2)cc1` [Compound 357]: in assay [2] (40 μm), the “48 hrs (morphology observations)” value was 0. Further, the cytotoxicity at 40 µM in assay [2] came out at 0%.
In the same order, the values of `CCCCOc1ccc(S(=O)(=O)c2cnc3ccc(SC)cc3c2N2CCCN(C3CCSCC3)CC2)cc1` [Compound 358] are 0 and 0%.
Turning to `CCCCOc1ccc(S(=O)(=O)c2cnc3ccc(SC)cc3c2N2CCCN(C3CCS(=O)(=O)CC3)CC2)cc1` [Compound 359], in assay [2] (40 μm), the “48 hrs (morphology observations)” value is 0. Further, the cytotoxicity at 40 µM in assay [2] was determined as 20%.
In the same order, the values of `CNC(=O)c1ccc2ncc(S(=O)(=O)c3ccc(OC)cc3)c(NC)c2c1` [Compound 360] are 0 and 20%.
For `CCCCCCCCCCCCOc1ccc(S(=O)(=O)c2cnc3ccc([S+](C)[O-])cc3c2N2CCC(N3CCN(CCO)CC3)CC2)cc1F` (stereo not drawn) [Compound 362], in assay [2] (20 μm), the “48 hrs (morphology observations)” value is listed as “*** (more than 50% but less than 100% of endothelial cells vesicularize in cell shape)” and the Cell death turned out to be 20%.
In the same order, the values of `CCCCCCCCCCCCOc1ccc(S(=O)(=O)c2cnc3ccc([S+](C)[O-])cc3c2N2CCC(N3CCC(N4CCCCC4)CC3)CC2)cc1F` (stereo not drawn) [Compound 363] are “*** (more than 50% but less than 100% of endothelial cells vesicularize in cell shape)” and 30%.
As for `CCCCCCCCCCCCCCOc1ccc(S(=O)(=O)c2cnc3ccc([S+](C)[O-])cc3c2N2CCC(N3CCC(N4CCCC(O)C4)CC3)CC2)cc1F` (stereo not drawn) [Compound 364], the “48 hrs (morphology observations)” value in assay [2] (20 μm) is on record as “*** (more than 50% but less than 100% of endothelial cells vesicularize in cell shape)”. The cytotoxicity at 20 µM in assay [2] amounted to 30%.
Take `CCCCCCCCCCCCCCOc1ccc(S(=O)(=O)c2cnc3ccc([S+](C)[O-])cc3c2N2CCC(N3CCN(CCO)CC3)CC2)cc1F` (stereo not drawn) [Compound 365]: in assay [2] (20 μm), the “48 hrs (morphology observations)” value is “*** (more than 50% but less than 100% of endothelial cells vesicularize in cell shape)” and the Cell death is given as 20%.
In the same order, the values of `CCCCCCCCCCCCCCOc1ccc(S(=O)(=O)c2cnc3ccc([S+](C)[O-])cc3c2N2CCC(N3CCC(N4CCCCC4)CC3)CC2)cc1F` (stereo not drawn) [Compound 366] are 0 and 10%.
Take `CCCCCCCCCCCCOc1ccc(S(=O)(=O)c2cnc3ccc([S+](C)[O-])cc3c2N2CCC(N3CCC(N4CCCC(O)C4)CC3)CC2)cc1F` (stereo not drawn) [Compound 367]: in assay [2] (20 μm), the “48 hrs (morphology observations)” value was determined as 0. Moreover, in assay [2], the cytotoxicity at 20 µM worked out at 5%.
On to `CCCCCCCCCCCCCCOc1ccc(S(=O)(=O)c2cnc3ccc([S+](C)[O-])cc3c2N2CCC(N3CCC(N4CCN(CCO)CC4)CC3)CC2)cc1F` (stereo not drawn) [Compound 368], for which, in assay [2] (20 μm), the Cell death stood at 20%.
In the case of `CCCCCCCCCCCCOc1ccc(S(=O)(=O)c2cnc3ccc([S+](C)[O-])cc3c2N2CCC(N3CCC(N4CCN(C)CC4)CC3)CC2)cc1F` (stereo not drawn) [Compound 370], the Cell death in assay [2] (20 μm) was 20%.
In the case of `CCCCCCCCCCCCCCOc1ccc(S(=O)(=O)c2cnc3ccc([S+](C)[O-])cc3c2N2CCC(N3CCC(N4CCN(C)CC4)CC3)CC2)cc1F` (stereo not drawn) [Compound 371], in assay [2] (20 μm), the “48 hrs (morphology observations)” value is “*** (more than 50% but less than 100% of endothelial cells vesicularize in cell shape)” and the Cell death came out at 30%.
On to `CCCCCCCCCCCCOc1ccc(S(=O)(=O)c2cnc3ccc([S+](C)[O-])cc3c2N2CCC(N3CCC(N4CCC(O)CC4)CC3)CC2)cc1F` (stereo not drawn) [Compound 372], for which the Cell death in assay [2] (20 μm) is reported as 20%.
`CCCCCCCCCCCCCCOc1ccc(S(=O)(=O)c2cnc3ccc([S+](C)[O-])cc3c2N2CCC(N3CCC(N4CCC(O)CC4)CC3)CC2)cc1F` (stereo not drawn) [Compound 373]: in assay [2] (20 μm), the “48 hrs (morphology observations)” value is “* (50% or less of cells vesicularize in cell shape)” and the Cell death was determined as 20%.
`CCCCCCCCCCCCOc1ccc(S(=O)(=O)c2cnc3ccc([S+](C)[O-])cc3c2N2CCC(N3CCC(N4CCC(O)CC4)CC3)CC2)cc1` (stereo not drawn) [Compound 374]: in assay [2] (20 μm), the Cell death is reported as 20%.
Consider `CCCCCCCCCCCCCCOc1ccc(S(=O)(=O)c2cnc3ccc([S+](C)[O-])cc3c2N2CCC(N3CCC(N4CCC(O)CC4)CC3)CC2)cc1` (stereo not drawn) [Compound 375], for which, in assay [2] (20 μm), the “48 hrs (morphology observations)” value is “* (50% or less of cells vesicularize in cell shape)” and the Cell death came to 50%.
In the same order, the values of `CCCCCCCCCCCCCCCCOc1ccc(S(=O)(=O)c2cnc3ccc([S+](C)[O-])cc3c2N2CCC(N3CCN(CCO)CC3)CC2)cc1` (stereo not drawn) [Compound 376] are 0 and 10%.
In the same order, the values of `CCCCCCCCCCCCCCCCOc1ccc(S(=O)(=O)c2cnc3ccc([S+](C)[O-])cc3c2N2CCC(N3CCC(N4CCCCC4)CC3)CC2)cc1` (stereo not drawn) [Compound 377] are 0 and 10%.
In the same order, the values of `CCCCCCCCCCCCCCCCOc1ccc(S(=O)(=O)c2cnc3ccc([S+](C)[O-])cc3c2N2CCC(N3CCC(N4CCCC(O)C4)CC3)CC2)cc1` (stereo not drawn) [Compound 378] are “*** (more than 50% but less than 100% of endothelial cells vesicularize in cell shape)” and 30%.
